# Data as given in PMC4664966, “Discovery and characterization of novel inhibitors of the sodium-coupled citrate transporter (NaCT or SLC13A5)” (Scientific Reports, 2015).
# Entries after “also recorded” stand apart in the source; their conditions may differ.
# Key:
# Dopamine receptor 1 (D1) = Dopamine receptor 1 (D1) (Homo sapiens, UniProt P21728); experiment: Selectivity data (Table S1); format: binding
# [1] = target: Angiotensin II receptor type 1 (AGTR1) (Homo sapiens, UniProt P30556); experiment: Selectivity data (Table S1); format: binding
# [2] = target: Opioid receptor, mu (MOP) (Homo sapiens, UniProt P35372); experiment: Selectivity data (Table S1); format: binding
# [3] = target: Serotonin receptor 4e (5-HT4e) (Homo sapiens, UniProt Q13639); experiment: Selectivity data (Table S1); format: binding
# Androgen receptor = Androgen receptor (Homo sapiens, UniProt P10275); experiment: Selectivity data (Table S1); format: binding
# Sequence of Androgen receptor (P10275 whole entry): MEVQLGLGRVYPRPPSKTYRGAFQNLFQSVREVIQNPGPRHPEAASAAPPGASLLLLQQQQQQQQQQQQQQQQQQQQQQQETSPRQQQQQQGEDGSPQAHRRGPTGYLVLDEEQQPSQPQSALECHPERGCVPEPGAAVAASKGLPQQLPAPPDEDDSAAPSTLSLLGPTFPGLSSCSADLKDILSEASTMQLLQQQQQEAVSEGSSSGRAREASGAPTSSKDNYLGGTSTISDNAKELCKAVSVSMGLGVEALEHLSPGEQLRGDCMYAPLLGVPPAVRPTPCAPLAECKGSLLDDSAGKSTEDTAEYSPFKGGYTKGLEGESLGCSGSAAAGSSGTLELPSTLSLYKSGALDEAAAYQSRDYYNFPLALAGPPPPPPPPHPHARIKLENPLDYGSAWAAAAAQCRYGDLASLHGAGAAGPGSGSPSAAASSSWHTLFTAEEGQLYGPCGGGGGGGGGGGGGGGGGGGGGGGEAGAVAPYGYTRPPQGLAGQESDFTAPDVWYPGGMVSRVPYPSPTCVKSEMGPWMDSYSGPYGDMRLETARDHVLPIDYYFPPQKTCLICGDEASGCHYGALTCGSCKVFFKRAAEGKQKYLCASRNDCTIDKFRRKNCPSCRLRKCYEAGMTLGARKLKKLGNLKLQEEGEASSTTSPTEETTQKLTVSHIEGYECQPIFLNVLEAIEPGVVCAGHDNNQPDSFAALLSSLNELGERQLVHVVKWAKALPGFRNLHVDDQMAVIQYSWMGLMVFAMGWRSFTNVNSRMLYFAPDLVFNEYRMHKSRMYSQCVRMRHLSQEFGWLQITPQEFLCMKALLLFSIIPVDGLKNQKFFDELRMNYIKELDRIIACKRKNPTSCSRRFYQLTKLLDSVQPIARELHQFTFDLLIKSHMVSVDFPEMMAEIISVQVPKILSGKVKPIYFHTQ
# [4] = target: Adrenergic receptor, beta-2(ADRB2) (Homo sapiens, UniProt P07550); experiment: Selectivity data (Table S1); format: binding
# [5] = Steady state intravenous infusion in rat, tissue distribution
# [6] = target: Phosphodiesterase 4D3 (PDE4D3) (Homo sapiens, UniProt Q08499); experiment: Selectivity data (Table S1); format: biochemical
# HepG2 cells = experiment: Cellular toxicity in HepG2 cells; format: cell-based; conditions: concentrations up to 300 μM and 72 hours incubation
# Histamine receptor (H3) = Histamine receptor (H3) (Homo sapiens, UniProt Q9Y5N1); experiment: Selectivity data (Table S1); format: binding
# [7] = target: Gamma-aminobutyric acid receptor A, alpha 1 (GABRA1) (Homo sapiens, UniProt P14867+P47870); experiment: Selectivity data (Table S1); format: binding
# [8] = Intra-/extracellular unbound concentration ratio (Kpuu) in HEKNaCT cells; format: in vitro ADME; conditions: human, ratio of free intracellular and media concentration after 1 h incubation at 1 μM, geometric mean of 3 replicates ± SD
# Protocol: (§1) kpuu values were determined by measuring total cell and media concentrations corrected for their respective fraction unbound. Detailed methods to determine intra- and extracellular concentrations of compound in the HEKNaCT cells and human hepatocytes will be the subject of a separate manuscript that is under preparation. […]
# (§2) Intra- and extracellular concentrations of compound in cellular assays. kpuu values were determined by measuring total cell and media concentrations corrected for their respective […]
# (§3) fraction unbound. […]
# (§4) The solution was heated to reflux until the total volume was reduced to ~25 mL.
# (§5) Hexane (25 mL) was added and the mixture was brought back to reflux than allowed to slowly cool to room temperature. After standing at room temperature for 16 h, the resulting suspension was filtered and dried under high vacuum to yield (S)-2-(4-(tert-butyl)phenethyl)-2-hydroxysuccinic acid (3) as a white solid. The filtrate was allowed to stand at room temperature for 4 days. The solvent evaporated to ~15 mL and large, colorless crystals formed.
# (§6) X-ray analysis. Data collection was performed on a Bruker APEX diffractometer at room temperature. Data collection consisted of 3 omega scans and low angle and three at high angle; each with 0.5 step. In addition, 2 phi scans were collected to improve the quality of the […]
# [9] = target: Diacylglycerol acyltransferase 1 (DGAT1) (Homo sapiens, UniProt O75907); experiment: Selectivity data (Table S1); format: biochemical
# Sequence of Diacylglycerol acyltransferase 1 (DGAT1) (O75907 whole entry, species assumed): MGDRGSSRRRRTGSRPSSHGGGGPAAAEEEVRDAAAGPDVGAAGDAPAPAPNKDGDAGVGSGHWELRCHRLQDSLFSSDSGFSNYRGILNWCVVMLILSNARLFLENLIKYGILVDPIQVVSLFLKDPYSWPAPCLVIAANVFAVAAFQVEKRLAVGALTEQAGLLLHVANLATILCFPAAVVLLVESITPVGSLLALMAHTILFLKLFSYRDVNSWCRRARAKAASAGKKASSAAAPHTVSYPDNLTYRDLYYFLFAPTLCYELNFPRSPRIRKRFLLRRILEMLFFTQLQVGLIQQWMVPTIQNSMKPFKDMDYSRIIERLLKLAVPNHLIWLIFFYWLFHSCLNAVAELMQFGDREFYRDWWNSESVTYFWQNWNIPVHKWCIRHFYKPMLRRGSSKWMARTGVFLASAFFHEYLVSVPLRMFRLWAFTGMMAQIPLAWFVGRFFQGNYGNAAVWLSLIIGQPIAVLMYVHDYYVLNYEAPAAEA
# [10] = target: Diacylglycerol acyltransferase 2 (DGAT2) (Homo sapiens, UniProt Q96PD7); experiment: Selectivity data (Table S1); format: biochemical
# [11] = target: Phosphodiesterase 3B (PDE3B) (Homo sapiens, UniProt Q13370); experiment: Selectivity data (Table S1); format: biochemical
# [12] = target: Serotonin receptor 1A (5-HT1A) (Homo sapiens, UniProt P08908); experiment: Selectivity data (Table S1); format: binding
# [13] = target: Serotonin receptor 3 (5-HT3) (Homo sapiens, UniProt P46098); experiment: Selectivity data (Table S1); format: binding
# Sequence of Serotonin receptor 3 (5-HT3) (P46098 24-478): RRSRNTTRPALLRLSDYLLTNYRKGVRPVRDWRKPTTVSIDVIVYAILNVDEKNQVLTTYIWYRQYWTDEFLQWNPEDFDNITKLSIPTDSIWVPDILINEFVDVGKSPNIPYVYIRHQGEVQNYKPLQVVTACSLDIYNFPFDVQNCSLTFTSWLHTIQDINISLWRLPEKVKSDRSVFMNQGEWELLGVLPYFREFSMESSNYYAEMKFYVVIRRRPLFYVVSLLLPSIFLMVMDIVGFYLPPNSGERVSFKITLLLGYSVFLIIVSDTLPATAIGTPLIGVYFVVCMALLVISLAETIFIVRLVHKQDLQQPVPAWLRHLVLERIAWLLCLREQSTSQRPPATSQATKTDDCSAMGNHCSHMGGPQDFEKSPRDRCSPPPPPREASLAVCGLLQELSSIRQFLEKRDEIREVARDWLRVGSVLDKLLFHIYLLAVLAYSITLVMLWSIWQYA
# [14] = target: Potassium voltage-gated channel, KQT-like subfamily, member 1 (KCNQ1) (Homo sapiens, UniProt P51787); experiment: in vitro
# [15] = target: Angiotensin-converting enzyme 1 (ACE1) (Homo sapiens, UniProt P12821); experiment: Selectivity data (Table S1); format: biochemical
# Sequence of Angiotensin-converting enzyme 1 (ACE1) (P12821 30-1306): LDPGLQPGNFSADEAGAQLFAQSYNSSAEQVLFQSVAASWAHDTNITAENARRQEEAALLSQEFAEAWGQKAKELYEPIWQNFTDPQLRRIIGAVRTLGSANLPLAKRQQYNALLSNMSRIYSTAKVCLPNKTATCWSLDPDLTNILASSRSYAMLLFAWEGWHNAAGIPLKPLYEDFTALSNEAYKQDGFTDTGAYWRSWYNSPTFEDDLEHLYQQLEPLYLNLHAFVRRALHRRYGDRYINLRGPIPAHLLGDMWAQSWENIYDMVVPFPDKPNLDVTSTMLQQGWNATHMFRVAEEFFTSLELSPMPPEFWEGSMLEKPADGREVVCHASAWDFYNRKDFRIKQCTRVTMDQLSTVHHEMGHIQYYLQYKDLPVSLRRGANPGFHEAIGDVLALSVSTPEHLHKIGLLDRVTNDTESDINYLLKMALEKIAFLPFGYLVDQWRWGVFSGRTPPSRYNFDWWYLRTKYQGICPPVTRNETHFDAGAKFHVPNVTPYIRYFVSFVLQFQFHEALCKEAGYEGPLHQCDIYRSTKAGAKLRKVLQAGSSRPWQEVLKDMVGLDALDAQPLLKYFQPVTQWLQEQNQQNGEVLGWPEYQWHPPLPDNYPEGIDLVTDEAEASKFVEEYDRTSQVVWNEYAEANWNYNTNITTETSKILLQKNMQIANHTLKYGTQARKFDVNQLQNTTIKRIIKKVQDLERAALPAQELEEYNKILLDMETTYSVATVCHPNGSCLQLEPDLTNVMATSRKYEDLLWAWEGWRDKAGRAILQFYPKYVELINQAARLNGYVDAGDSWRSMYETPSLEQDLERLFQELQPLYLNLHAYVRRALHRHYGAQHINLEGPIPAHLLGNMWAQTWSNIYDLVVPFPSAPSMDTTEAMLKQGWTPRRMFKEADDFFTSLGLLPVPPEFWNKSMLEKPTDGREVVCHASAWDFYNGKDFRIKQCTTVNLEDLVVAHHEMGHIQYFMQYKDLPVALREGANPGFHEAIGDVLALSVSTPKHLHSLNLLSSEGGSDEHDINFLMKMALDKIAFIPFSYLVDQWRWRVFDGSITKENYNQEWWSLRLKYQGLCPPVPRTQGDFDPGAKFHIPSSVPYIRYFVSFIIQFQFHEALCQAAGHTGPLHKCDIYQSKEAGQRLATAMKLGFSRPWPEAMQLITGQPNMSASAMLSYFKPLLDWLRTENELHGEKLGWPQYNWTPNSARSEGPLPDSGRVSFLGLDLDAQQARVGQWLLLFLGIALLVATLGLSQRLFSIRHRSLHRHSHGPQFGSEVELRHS
# [16] = target: Phosphodiesterase 3A1 (PDE3A1) (Homo sapiens, UniProt Q14432); experiment: Selectivity data (Table S1); format: biochemical
# [17] = Intra-/extracellular unbound concentration ratio (Kpuu) in human hepatocytes; format: in vitro ADME; conditions: cryopreserved hepatocytes, ratio of free intracellular and media concentration after 1 h incubation at 1 μM, geometric mean of 3 replicates ± SD
# Protocol: as §1, §2, §3, §4, §5, §6
# [18] = target: ATP-binding cassette, sub-family B, member 11 (ABCB11) (Homo sapiens, UniProt O95342); experiment: Selectivity data (Table S1)
# [19] = target: Nicotinic acetylcholine receptor complex (alpha-4 / beta-2) (Homo sapiens, UniProt P17787+P43681); experiment: Selectivity data (Table S1); format: binding
# [20] = target: Mitogen-activated protein kinase 14 (MAPK14 / P38-alpha) (Homo sapiens, UniProt Q16539); experiment: Selectivity data (Table S1); format: biochemical
# [21] = target: Histamine receptor 2 (H2) (Homo sapiens, UniProt P25021); experiment: Selectivity data (Table S1); format: binding
# [22] = target: Abelson murine leukemia viral oncogene homolog 1 (ABL1) (Homo sapiens, UniProt P00519); experiment: Selectivity data (Table S1); format: biochemical
# Sequence of Abelson murine leukemia viral oncogene homolog 1 (ABL1) (P00519 whole entry): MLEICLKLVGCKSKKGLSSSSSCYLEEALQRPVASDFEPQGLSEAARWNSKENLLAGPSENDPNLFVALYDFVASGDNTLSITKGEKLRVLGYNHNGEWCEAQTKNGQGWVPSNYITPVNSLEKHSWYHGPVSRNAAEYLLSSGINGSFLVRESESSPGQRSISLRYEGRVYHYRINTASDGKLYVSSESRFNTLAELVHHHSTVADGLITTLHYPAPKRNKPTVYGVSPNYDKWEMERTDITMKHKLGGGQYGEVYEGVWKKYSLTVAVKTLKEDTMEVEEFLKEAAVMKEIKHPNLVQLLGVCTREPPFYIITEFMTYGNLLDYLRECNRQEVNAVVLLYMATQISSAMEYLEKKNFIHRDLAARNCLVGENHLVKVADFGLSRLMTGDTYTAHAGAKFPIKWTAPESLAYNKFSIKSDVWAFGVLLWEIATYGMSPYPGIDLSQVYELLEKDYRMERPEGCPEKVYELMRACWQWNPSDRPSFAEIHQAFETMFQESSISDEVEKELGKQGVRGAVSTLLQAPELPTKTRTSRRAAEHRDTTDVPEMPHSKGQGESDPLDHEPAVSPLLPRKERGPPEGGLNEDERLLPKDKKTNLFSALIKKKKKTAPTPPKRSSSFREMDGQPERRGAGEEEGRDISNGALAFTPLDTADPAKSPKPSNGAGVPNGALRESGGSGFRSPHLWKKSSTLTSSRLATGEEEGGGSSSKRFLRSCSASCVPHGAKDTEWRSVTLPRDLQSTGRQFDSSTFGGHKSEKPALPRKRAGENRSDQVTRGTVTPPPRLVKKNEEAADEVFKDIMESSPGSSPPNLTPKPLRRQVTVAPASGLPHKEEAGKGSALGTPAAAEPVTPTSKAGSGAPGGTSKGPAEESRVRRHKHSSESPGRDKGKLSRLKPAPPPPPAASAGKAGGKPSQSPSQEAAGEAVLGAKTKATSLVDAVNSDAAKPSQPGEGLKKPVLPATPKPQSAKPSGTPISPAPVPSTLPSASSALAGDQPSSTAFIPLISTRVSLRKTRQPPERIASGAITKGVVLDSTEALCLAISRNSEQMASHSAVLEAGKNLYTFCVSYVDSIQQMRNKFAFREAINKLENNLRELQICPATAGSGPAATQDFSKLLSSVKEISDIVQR
# [23] = target: Adrenergic receptor, alpha-2B (ADRA2B) (Homo sapiens, UniProt P18089); experiment: Selectivity data (Table S1); format: binding
# [24] = target: Cyclooxygenase 2 (prostaglandin endoperoxide synthase 2) (Homo sapiens, UniProt P35354); experiment: Selectivity data (Table S1); format: biochemical
# [25] = target: Histamine receptor 1 (H1) (Homo sapiens, UniProt P35367); experiment: Selectivity data (Table S1); format: binding
# mice fed a HFD = experiment: Chronic treatment of mice fed a HFD (OGTT, hepatic lipids)
# Protocol: In studies requiring chronic treatment with compound, mice were purchased at 18 weeks of age following 13 weeks of HFD administration (D12459i; 60% of the calories from fat). Mice were maintained on HFD for the duration of the study in a 12:12-h light/dark cycle. […] To perform an oral glucose tolerance test (day 20 of dosing), mice were fasted at 6:00 AM to 12:00 PM and administered P.O. 1.5 g/kg at 12:00 PM. Glucose concentrations were determined using an AlphaTrak (Abbott Laboratories) at 0, 15, 30, 60, and 90 minutes. […] Hepatic lipids were measured by LC-MS/MS as previously described[42].
# [26] = target: Serotonin receptor 1B (5-HT1B) (Homo sapiens, UniProt P28222); experiment: Selectivity data (Table S1); format: binding
# [27] = target: Phosphodiesterase 4D (PDE4D) (Homo sapiens, UniProt Q08499); experiment: Selectivity data (Table S1); format: biochemical
# Sequence of Phosphodiesterase 4D (PDE4D) (Q08499 whole entry): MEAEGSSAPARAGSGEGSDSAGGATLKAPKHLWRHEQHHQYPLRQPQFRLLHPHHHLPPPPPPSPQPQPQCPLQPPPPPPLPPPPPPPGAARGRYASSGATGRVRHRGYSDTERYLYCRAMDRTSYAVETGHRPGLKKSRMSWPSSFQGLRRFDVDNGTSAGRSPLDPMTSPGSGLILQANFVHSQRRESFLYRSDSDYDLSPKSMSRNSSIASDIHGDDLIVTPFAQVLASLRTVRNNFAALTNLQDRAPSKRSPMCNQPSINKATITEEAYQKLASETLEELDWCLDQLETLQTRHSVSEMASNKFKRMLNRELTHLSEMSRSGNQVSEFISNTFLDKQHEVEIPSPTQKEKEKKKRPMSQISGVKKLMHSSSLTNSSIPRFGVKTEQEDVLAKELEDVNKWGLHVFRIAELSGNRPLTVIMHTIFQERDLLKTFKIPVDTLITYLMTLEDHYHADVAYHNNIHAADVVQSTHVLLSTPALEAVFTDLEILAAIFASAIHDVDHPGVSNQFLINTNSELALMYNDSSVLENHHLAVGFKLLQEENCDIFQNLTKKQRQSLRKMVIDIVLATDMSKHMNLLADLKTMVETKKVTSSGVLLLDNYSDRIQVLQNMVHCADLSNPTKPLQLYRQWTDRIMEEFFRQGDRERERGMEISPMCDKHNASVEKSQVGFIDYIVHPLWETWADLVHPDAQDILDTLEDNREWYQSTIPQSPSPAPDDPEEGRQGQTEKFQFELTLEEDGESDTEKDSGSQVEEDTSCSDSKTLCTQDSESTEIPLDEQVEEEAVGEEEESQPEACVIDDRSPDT
# [28] = HFD mice, 250 mg/kg BID for 21 days
smiles,measurement,setting,value
CC(C)(C)c1ccc(CC[C@@](O)(CC(=O)O)C(=O)O)cc1 [Compound 2],inhibition at 100 µM,Dopamine receptor 1 (D1),< 10%
same,inhibition at 100 µM,[1],< 10%
same,inhibition at 100 µM,[2],< 10%
same,inhibition at 100 µM,[3],< 10%
same,inhibition at 100 µM,Androgen receptor,< 10%
same,inhibition at 100 µM,[4],< 10%
same,brain penetration,[5]; steady state intravenous infusion,minimal brain penetration; also recorded: restricted in the brain
same,uptake in liver and kidney compared to plasma,[5]; steady state intravenous infusion 0.27mg/kg/hour,significant uptake of the compound in the liver and kidney
same,IC50,[6],> 30 µM
same,cellular toxicity,HepG2 cells,no observable toxicity
same,inhibition at 100 µM,Histamine receptor (H3),< 10%
same,inhibition at 100 µM,[7],< 10%
same,"Kp uu at 1 h, 1 µM",[8],29 ± 5
same,IC50,[9],> 50 µM
same,IC50,[10],> 50 µM
same,inhibition at 100 µM,[11],< 10%
same,inhibition at 100 µM,[12],< 10%
same,inhibition at 100 µM,[13],< 10%
same,inhibition at 10 µM,[14],< 10%
same,inhibition at 100 µM,[15],< 10%
same,IC50,[16],> 30 µM
same,"Kp uu at 1 h, 1 µM",[17],4.8 ± 0.5
same,IC50,[18],> 200 µM
same,inhibition at 100 µM,[19],< 10%
same,inhibition at 100 µM,[20],< 10%
same,inhibition at 100 µM,[21],< 10%
same,inhibition at 100 µM,[22],< 10%
same,inhibition at 100 µM,[23],< 10%
same,inhibition at 100 µM,[24],22%
same,inhibition at 100 µM,[25],< 10%
same,plasma insulin concentrations area under the curve during OGTT,"mice fed a HFD; HFD mice, 250 mg/kg BID",no differences
same,hepatic TAG and DAG,mice fed a HFD; [28],trend for lower
same,hepatic acylcarnitine,mice fed a HFD; [28],higher levels
same,β-hydroxybutyrate concentrations,mice fed a HFD; [28],0.49 ± 0.06 mmol/L
same,glucose intolerance during OGTT,"mice fed a HFD; HFD mice, 250 mg/kg BID, day 20",completely reversed
same,phenotype analogous to epileptic encephalopathy,mice fed a HFD; during the in vivo experiments,no phenotype analogous to epileptic encephalopathy was observed
same,inhibition at 100 µM,[26],< 10%
same,inhibition at 100 µM,[27],< 10%
